Each structure is given as a SMILES string. In brackets after ≈: the same amount, converted by molar mass. Where only a bound is given, the exact number is not on record here.

These results are taken from ChEMBL document CHEMBL1133388, “4-Aza-2,3-dehydro-4-deoxypodophyllotoxins: simple aza-podophyllotoxin analogues possessing potent cytotoxicity” (Bioorg Med Chem Lett, 2000).

For this assay, the system named is P388. The experiment in a line: Cytotoxicity against P-388 leukemia cells. In kind it is functional, cell-based. The conditions noted are these: Mus musculus.
The IC50 is the concentration at which inhibition is half-maximal. A low value points to greater potency. For `COc1ccc(-c2c3c(nc4cc5c(cc24)OCO5)COC3=O)cc1OC`, the IC50 came to 40 µg/mL (≈ 109 µM).

In turn, `COc1ccc(C2c3cc4c(cc3NC3COC(=O)C32)OCO4)cc1OC` (centres undefined) yielded an IC50 of 0.048 µg/mL (≈ 0.13 µM).

The compound `COc1cc(-c2c3c(nc4cc(OC)c(OC)c(OC)c24)COC3=O)cc(OC)c1OC` had an IC50 of 29 µg/mL (≈ 65.7 µM).

In turn, `COc1cc(C2C3=C(O)CCC3=Nc3cc4c(cc32)OCO4)cc(OC)c1OC` (centres undefined) showed an IC50 of 0.028 µg/mL (≈ 0.0708 µM).

In turn, `COc1cc(-c2c3c(nc4cc5c(cc24)-c2ccccc2C5)COC3=O)cc(OC)c1OC` yielded an IC50 of 63 µg/mL (≈ 143 µM).

For `COc1cc(-c2c3c(nc4cc5c(cc24)OCCO5)COC3=O)cc(OC)c1OC`, inhibition was half-maximal at 80 µg/mL (≈ 195 µM) (IC50).

`COc1cccc(C2C3=C(O)OCC3=Nc3cc4c(cc32)OCO4)c1` (centres undefined) had an IC50 of 0.0053 µg/mL (≈ 0.0157 µM).

Regarding `COc1cc(C2C3=C(O)OCC3=Nc3cc4c(cc32)OCCO4)cc(OC)c1OC` (centres undefined), the half-inhibitory concentration (IC50) came to 0.0017 µg/mL (≈ 0.00413 µM). Against the preceding compound, the IC50 is about 3.1-fold lower.

On to `COc1cc(-c2c3c(nc4cc5c(cc24)OCO5)CCC3=O)cc(OC)c1OC`, for which 71 µg/mL (≈ 180 µM) corresponded to half-maximal inhibition (IC50).

`COc1ccc(C2C3=C(O)OCC3=Nc3cc4c(cc32)OCO4)cc1` (centres undefined) registered a concentration for half-maximal inhibition (IC50) of 0.13 µg/mL (≈ 0.385 µM).

Regarding `COc1cc(-c2c3c(nc4cc5c(cc24)OCO5)COC3=O)cc(OC)c1OC`, the IC50 was greater than 100 µg/mL.

In turn, `COc1cc(C2C3=C(O)OCC3=Nc3cc4c(cc32)CCC4)cc(OC)c1OC` (centres undefined) gave a concentration for half-maximal inhibition (IC50) of 0.0041 µg/mL (≈ 0.0104 µM).

In turn, `OC1=C2C(=Nc3cc4c(cc3C2c2ccc3c(c2)OCO3)OCO4)CO1` (centres undefined) returned an IC50 of 0.03 µg/mL (≈ 0.0854 µM).

The compound `COc1cc2nc3c(c(-c4cc(OC)c(OC)c(OC)c4)c2cc1OC)C(=O)OC3` had an IC50 greater than 100 µg/mL.

`COc1ccc(C2C3=C(O)OCC3=Nc3cc(OC)c(OC)cc32)cc1OC` (centres undefined) showed an IC50 of 0.76 µg/mL (≈ 1.98 µM).

`COc1cc2nc3c(c(-c4ccc5c(c4)OCO5)c2cc1OC)C(=O)OC3` had a 50% inhibitory concentration (IC50) of 2 µg/mL (≈ 5.47 µM). This IC50 lies about 2.6-fold higher than the previous one.

As to `COc1cc(-c2c3c(nc4cc5c(cc24)CCC5)COC3=O)cc(OC)c1OC`, the half-inhibitory concentration (IC50) was greater than 100 µg/mL.

As for `COc1cc(C2C3=C(O)OCC3=Nc3cc4c(cc32)-c2ccccc2C4)cc(OC)c1OC` (centres undefined), half-maximal inhibition (IC50) required 0.92 µg/mL (≈ 2.08 µM).

Compound `COc1ccc(-c2c3c(nc4cc(OC)c(OC)cc24)COC3=O)cc1OC` displayed a 50% inhibitory concentration (IC50) of 39 µg/mL (≈ 102 µM).

`COc1ccc(-c2c3c(nc4cc5c(cc24)OCO5)COC3=O)cc1`: the half-inhibitory concentration (IC50) was greater than 100 µg/mL.

Turning to `O=C1OCc2nc3cc4c(cc3c(-c3ccccc3)c21)OCO4`, the IC50 is 60 µg/mL (≈ 197 µM).

Regarding `COc1cc2c(cc1OC)C(c1ccc3c(c1)OCO3)C1=C(O)OCC1=N2` (centres undefined), the 50% inhibitory concentration (IC50) stood at 0.77 µg/mL (≈ 2.1 µM).

In turn, `COc1cccc(-c2c3c(nc4cc5c(cc24)OCO5)COC3=O)c1` displayed an IC50 greater than 100 µg/mL.

In the case of `O=C1OCc2nc3cc4c(cc3c(-c3ccc5c(c3)OCO5)c21)OCO4`, the IC50 is greater than 100 µg/mL.

The compound `COc1cc(C2C3=C(COC3=O)Nc3cc(OC)c(OC)c(OC)c32)cc(OC)c1OC` (centres undefined) showed a half-inhibitory concentration (IC50) of 2.6 µg/mL (≈ 5.86 µM).

`COc1cc(C2C3=C(COC3=O)Nc3cc4c(cc32)OCO4)cc(OC)c1OC` (centres undefined) yielded a half-maximal inhibitory concentration (IC50) of 0.0018 µg/mL (≈ 0.00453 µM). Against the preceding compound, the IC50 is about 1400-fold lower.

Consider `COc1cc2c(cc1OC)C(c1cc(OC)c(OC)c(OC)c1)C1=C(O)OCC1=N2` (centres undefined), for which the half-inhibitory concentration (IC50) worked out at 4.9 µg/mL (≈ 11.9 µM).

`OC1=C2C(=Nc3cc4c(cc3C2c2ccccc2)OCO4)CO1` (centres undefined) came in with an IC50 of 0.0053 µg/mL (≈ 0.0172 µM).

Compound `COc1cc([C@@H]2c3cc4c(cc3[C@H](O)[C@H]3COC(=O)[C@H]23)OCO4)cc(OC)c1OC` [PODOFILOX] registered an IC50 of 0.0043 µg/mL (≈ 0.0104 µM).
